Our source for the IC50 and IC90 values is ChEMBL document CHEMBL4483862, “Open-source discovery of chemical leads for next-generation chemoprotective antimalarials” (2018).

Broadly, the IC50 is the midpoint of a concentration-inhibition curve. Broadly, the IC90 is the concentration needed for an effect of 90%.

This assay concerns Plasmodium berghei. Put plainly: Luciferase/luciferin-expressing antifolate-resistant parasites were used to infect a culture of HepG2 cells that were pre-incubated with compounds. Infected hepatocytes emit light due to the luciferase reaction. Assay results are presented as the percent inhibition of light emission compared to control. […]. It is filed as functional. As to conditions: sporozoite; for IC90: read-out: LUCIFERASE INFECTION ASSAY - IC90.

Setting [1] is: read-out: LUCIFERASE INFECTION ASSAY - IC50.

Some results are limits rather than exact numbers.

In the case of `CC(NC(=O)C1CCCN(C(=O)OC(C)(C)C)C1)c1ccc(-n2ccnc2)cc1` (stereo unspecified), the IC90 is above 2 µM. Besides, the IC50 under setting [1] is above 2 µM.
On to `Cc1nc(SCC(=O)Nc2nc(Br)sc2Cc2ccc([N+](=O)[O-])cc2)sc1Cc1ccccc1`, for which the IC90 is above 10 µM. Where the note is “FFLUC_HILL_SLOPE 16.2, FFLUC_R_SQUARED 0.412, read-out: LUCIFERASE INFECTION ASSAY - IC50”, the half-maximal inhibitory concentration (IC50) is above 10 µM.
As for `O=C1C=CC(=O)N1c1ccc(Oc2ccccc2)cc1`, the concentration for an effect of 90% (IC90) was above 12.4 µM. Besides, for the setting “FFLUC_HILL_SLOPE 1.06, FFLUC_R_SQUARED 0.54, read-out: LUCIFERASE INFECTION ASSAY - IC50”, the half-maximal inhibitory concentration (IC50) is above 12.4 µM.
Regarding `CCCC(C)C(=O)Nc1nc2ccc(C)cn2c1C(=O)NC1CCCCC1` (stereo unspecified), the IC90 is above 8.91 µM. The IC50 (FFLUC_HILL_SLOPE 3.24, FFLUC_R_SQUARED 0.792, read-out: LUCIFERASE INFECTION ASSAY - IC50) was above 8.91 µM.
For `O=C(/C=C/c1ccco1)Nc1ccc(Cl)c(Cl)c1`, the IC90 worked out at 11.3 µM. In addition, the IC50 (HEPG2TOX_HILL_SLOPE 2.91, HEPG2TOX_R_SQUARED 0.987, PBLUC_HILL_SLOPE 6.61, PBLUC_R_SQUARED 0.512, read-out: LUCIFERASE INFECTION ASSAY - IC50) was determined as 8.1 µM.
Take `Cc1sc2ncnc(SCC(=O)NC3CCN(Cc4ccccc4)C3)c2c1C` (stereo unspecified): the IC90 was above 10 µM. The IC50 under setting [1] is above 10 µM.
Take `Cc1cccc(-[n+]2c(C)cc(C=C3Sc4ccc5ccccc5c4N3C)cc2C)c1`: the IC90 worked out at 0.685 µM. Also, where the note is “HEPG2TOX_HILL_SLOPE 1.04, HEPG2TOX_R_SQUARED 0.832, PBLUC_HILL_SLOPE 4.15, PBLUC_R_SQUARED 0.768, read-out: LUCIFERASE INFECTION ASSAY - IC50”, the IC50 was found to be 0.403 µM.
`COc1ccc(OC)c(/C=C/C(=O)N2C(=O)c3cccc(N)c3C2=O)c1`: the IC90 is above 10 µM. Further, the half-maximal inhibitory concentration (IC50) (HEPG2TOX_HILL_SLOPE 4.32, HEPG2TOX_R_SQUARED 0.934, PBLUC_HILL_SLOPE 15.3, PBLUC_R_SQUARED 0.377, read-out: LUCIFERASE INFECTION ASSAY - IC50) amounted to 9.46 µM.
In the case of `Cc1nn(-c2ccccc2)c(Cl)c1CSc1nnc(/C=C/c2ccc(F)cc2)[nH]1`, the IC90 was above 10 µM. The IC50 under setting [1] was above 10 µM.
For the compound `Cc1sc2nc3n(c(=O)c2c1C)CC/C3=C/c1cccc2ccccc12`, the 90% effect concentration (IC90) is above 10 µM. Also, the half-maximal inhibitory concentration (IC50) (HEPG2TOX_HILL_SLOPE 0.688, HEPG2TOX_R_SQUARED 0.114, PBLUC_HILL_SLOPE 1.25, PBLUC_R_SQUARED 0.514, read-out: LUCIFERASE INFECTION ASSAY - IC50) came to 3 µM.
As to `O=C(Cc1nc(=O)c2c3c(sc2[nH]1)CCCC3)c1c[nH]c2ccccc12`, the concentration for an effect of 90% (IC90) is above 10 µM. Besides, under setting [1], the IC50 is above 10 µM.
As for `CN(C)S(=O)(=O)c1cccc(NC(=O)c2ccc3c(c2Cl)C(=O)c2ccccc2C3=O)c1`, the IC90 is above 10 µM. Under setting [1], the IC50 amounted to 8.82 µM.
Regarding `O=C(CN1C(=O)NC2(CCCCC2)C1=O)NC1CCS(=O)(=O)C1` (stereo unspecified), the IC90 was above 10 µM. Further, under setting [1], the 50% inhibitory concentration (IC50) is above 10 µM.
Turning to `O=C(Cc1csc(NC(=O)c2ccccc2)n1)Nc1ncccc1O`, the IC90 was above 10 µM. For the same compound, the 50% inhibitory concentration (IC50) under setting [1] is above 10 µM.
Take `Cc1ccc2nc(NC(=O)c3ccc(OCc4nccn4C)cc3)sc2c1`: the concentration for an effect of 90% (IC90) is above 10 µM. For the same compound, under setting [1], the half-inhibitory concentration (IC50) is above 10 µM.
Regarding `OCc1cccc(-c2cnc3ccc(-c4cccc(OC(F)(F)F)c4)nn23)c1`, the IC90 came to 4.21 µM. Besides, the IC50 (HEPG2TOX_HILL_SLOPE 8.38, HEPG2TOX_R_SQUARED 0.945, PBLUC_HILL_SLOPE 12.7, PBLUC_R_SQUARED 0.452, read-out: LUCIFERASE INFECTION ASSAY - IC50) amounted to 3.54 µM.
For `CCCNC(=O)C1(C)CCN(Cc2ccc3ccccc3c2Br)C1` (stereo unspecified), the concentration for an effect of 90% (IC90) is above 8.48 µM. Further, the IC50 (PBLUC_HILL_SLOPE 5.63, PBLUC_R_SQUARED 0.42, read-out: LUCIFERASE INFECTION ASSAY - IC50) came to 5.79 µM.
For `O=S(=O)(Nc1cccc(-c2ncon2)c1)c1cc(C(F)(F)F)cc(C(F)(F)F)c1`, the IC90 was above 7.55 µM. Under setting [1], the IC50 stood at 0.531 µM.
Consider `c1ccc(-c2cn3ccnc3c(NCc3ccncc3)n2)cc1`, for which the IC90 was determined as 4.49 µM. Also, the concentration for half-maximal inhibition (IC50) (HEPG2TOX_HILL_SLOPE 2.19, HEPG2TOX_R_SQUARED 0.99, PBLUC_HILL_SLOPE 12.4, PBLUC_R_SQUARED 0.482, read-out: LUCIFERASE INFECTION ASSAY - IC50) is 3.76 µM.
As for `COc1ccc(-c2c(C)nn3c(=O)cc(-c4ccccc4)[nH]c23)cc1`, the 90% effect concentration (IC90) worked out at 9.94 µM. Besides, under “HEPG2TOX_HILL_SLOPE 10.3, HEPG2TOX_R_SQUARED 0.705, PBLUC_HILL_SLOPE 12.5, PBLUC_R_SQUARED 0.547, read-out: LUCIFERASE INFECTION ASSAY - IC50”, the half-maximal inhibitory concentration (IC50) came out at 8.34 µM.
Regarding `Cc1cc(Cl)n2ncc(-c3ccc(F)cc3)c2n1`, the 90% effect concentration (IC90) came out at 12.3 µM. Also, the concentration for half-maximal inhibition (IC50) (HEPG2TOX_HILL_SLOPE 0.63, HEPG2TOX_R_SQUARED 0.416, PBLUC_HILL_SLOPE 2.81, PBLUC_R_SQUARED 0.71, read-out: LUCIFERASE INFECTION ASSAY - IC50) stood at 5.62 µM.
Turning to `COc1ccc2c(c1)c(-c1csc(NC(=O)c3ccccn3)n1)c(C)n2C`, the IC90 was above 8.72 µM. The IC50 (PBLUC_HILL_SLOPE 1.89, PBLUC_R_SQUARED 0.766, read-out: LUCIFERASE INFECTION ASSAY - IC50) was above 8.72 µM.
As for `COC(=O)c1ccccc1NC(=O)/C=C/c1ccc(N2CCCS2(=O)=O)cc1`, the IC90 was determined as 6.74 µM. Besides, the IC50 under setting [1] worked out at 2.97 µM.
Consider `Cc1noc(/C=C/c2nn(C)cc2Cl)c1[N+](=O)[O-]`, for which the 90% effect concentration (IC90) amounted to 11.7 µM. Also, the IC50 (HEPG2TOX_HILL_SLOPE 8.49, HEPG2TOX_R_SQUARED 0.211, PBLUC_HILL_SLOPE 2.15, PBLUC_R_SQUARED 0.722, read-out: LUCIFERASE INFECTION ASSAY - IC50) was determined as 4.22 µM.
Regarding `CCCCN=C1NN=C(C23CC4CC(CC(C4)C2)C3)C(C)S1` (stereo unspecified), the IC90 was found to be 8.93 µM. Also, for the setting “PBLUC_HILL_SLOPE 3.27, PBLUC_R_SQUARED 0.411, read-out: LUCIFERASE INFECTION ASSAY - IC50”, the 50% inhibitory concentration (IC50) was determined as 4.56 µM.
As for `O=C(Nc1ccc(Oc2ccc(OC(F)(F)F)cc2)cc1)Nc1ccc(OC(F)(F)F)cc1`, the concentration for an effect of 90% (IC90) is above 6.99 µM. Moreover, under setting [1], the IC50 is above 6.99 µM.
Turning to `CN(C)C(=O)c1ccc(NCC(=O)N2N=C(c3ccc(Cl)cc3)CC2c2ccco2)cc1` (stereo unspecified), the 90% effect concentration (IC90) was 8.21 µM. For the same compound, the IC50 (PBLUC_HILL_SLOPE 25.7, PBLUC_R_SQUARED 0.49, read-out: LUCIFERASE INFECTION ASSAY - IC50) was found to be 7.54 µM.
On to `CC(C)Cc1ccc(C(NC(=O)CCc2ccc(S(N)(=O)=O)cc2)c2cccs2)cc1` (stereo unspecified), for which the 90% effect concentration (IC90) was above 10 µM. Also, the half-inhibitory concentration (IC50) (PBLUC_HILL_SLOPE 2.82, PBLUC_R_SQUARED 0.609, read-out: LUCIFERASE INFECTION ASSAY - IC50) was 7.34 µM.
In the case of `c1cc(CNc2ncnc3nc[nH]c23)cc(COCc2ccco2)c1`, the IC90 is above 10 µM. For the same compound, for the setting “HEPG2TOX_HILL_SLOPE 6.82, HEPG2TOX_R_SQUARED 0.307, PBLUC_HILL_SLOPE 1.97, PBLUC_R_SQUARED 0.21, read-out: LUCIFERASE INFECTION ASSAY - IC50”, the IC50 worked out at 6.9 µM.
On to `COc1cc(/C=C(\C#N)c2nc3ccccc3[nH]2)ccc1OC(=O)c1cc2c(C)nn(-c3ccccc3)c2s1`, for which the IC90 is above 10 µM. Moreover, the IC50 (FFLUC_HILL_SLOPE 1.24, FFLUC_R_SQUARED 0.777, PBLUC_HILL_SLOPE 2.61, PBLUC_R_SQUARED 0.768, read-out: LUCIFERASE INFECTION ASSAY - IC50) was 5.91 µM.
`O=C(NC1CCN(Cc2ccccc2)CC1)c1oc2ccccc2c1COc1ccccc1`: the IC90 was above 10 µM. Also, under “PBLUC_HILL_SLOPE 25.1, PBLUC_R_SQUARED 0.225, read-out: LUCIFERASE INFECTION ASSAY - IC50”, the IC50 is above 10 µM.
Take `COc1cc(CNCCCN(C)C)cc(Cl)c1OCc1ccc(F)cc1`: the IC90 is above 8.66 µM. Further, the IC50 (HEPG2TOX_HILL_SLOPE 10.1, HEPG2TOX_R_SQUARED 0.531, PBLUC_HILL_SLOPE 2.5, PBLUC_R_SQUARED 0.598, read-out: LUCIFERASE INFECTION ASSAY - IC50) is 5.14 µM.
Take `O=S(=O)(c1ccccc1NCc1ccnc(N2CCCC2)c1)C(F)(F)F`: the IC90 was above 10 µM. Moreover, the 50% inhibitory concentration (IC50) (HEPG2TOX_HILL_SLOPE 1.99, HEPG2TOX_R_SQUARED 0.873, PBLUC_HILL_SLOPE 3.99, PBLUC_R_SQUARED 0.0495, read-out: LUCIFERASE INFECTION ASSAY - IC50) was 6.48 µM.
`COc1cc(/C=C2\C=c3ccccc3=C2O)cc(Cl)c1OC(C)C`: the IC90 is above 10 µM. Moreover, the IC50 under setting [1] is above 10 µM.
As to `O=C(NCc1cn(-c2ccccc2)nc1-c1ccc(Cl)s1)c1ccccc1C(F)(F)F`, the IC90 is above 10 µM. Also, the 50% inhibitory concentration (IC50) (HEPG2TOX_HILL_SLOPE 3.63, HEPG2TOX_R_SQUARED 0.948, PBLUC_HILL_SLOPE 1.32, PBLUC_R_SQUARED 0.654, read-out: LUCIFERASE INFECTION ASSAY - IC50) was 2.44 µM.
For `COc1cc(OC)c(C2Nc3cc(Cl)c(S(N)(=O)=O)cc3S(=O)(=O)N2)cc1OC` (stereo unspecified), the 90% effect concentration (IC90) is above 10 µM. The IC50 under setting [1] was above 10 µM.
Regarding `Cc1ccc(C(=O)C(=O)Nc2cc(S(=O)(=O)N3CCCCC3)ccc2OC(C)C)cc1`, the IC90 was above 10 µM. For the same compound, the IC50 (FFLUC_HILL_SLOPE 11.8, FFLUC_R_SQUARED 0.613, read-out: LUCIFERASE INFECTION ASSAY - IC50) was above 10 µM.
With `COc1ccc(-c2cnc3cnc(-c4ccco4)cn23)cc1`, the IC90 stood at 7.67 µM. Besides, under “HEPG2TOX_HILL_SLOPE 2.99, HEPG2TOX_R_SQUARED 0.923, PBLUC_HILL_SLOPE 3.57, PBLUC_R_SQUARED 0.717, read-out: LUCIFERASE INFECTION ASSAY - IC50”, the IC50 was 4.15 µM.
